Data taken from patent US12508342B2, “Debridement composition” (priority 2020, dated 2025).

Assays:
[1] = Simulated wound matrix disruption on 96-peg lid, test solutions (Example 1); conditions: for % Difference in Efficacy (chelators) / % Difference in Efficacy (surfactants): 1% w/w solution, 37° C., 1 hour, absorbance at 595 nm, with respect to 1% w/w benzethonium chloride aqueous solution; for efficacy relative to benzalkonium chloride, cocoamidopropyl betaine and Poloxamer 188 / efficacy in disrupting the simulated test wound matrix relative to SLS: 1% w/w; for efficacy in disrupting the simulated test wound matrix relative to SLS: compared with SLS
Description: The following examples are prepared and evaluated using a simulated wound matrix composition. A wound matrix is prepared to contain:
The pegs are dipped into the simulated wound matrix and immediately transferred to a calcium chloride bath to achieve cross-linking. Solutions of test materials are prepared at 1% w/w in a 96 well microtiter plate. Following crosslinking, the pegs are inserted into the wells and incubated at 37° C. for 1 hour. Efficacy is characterised by the change in colour of the test solutions resulting from disruption of the stained material and is quantified by reading the absorbance of each solution at 595 nm. Results are presented with respect to a 1% w/w benzethonium chloride aqueous solution.

[2] = AKZO Nobel published values using modified Davies HLB group numbers; cited from earlier work

Molecule | % Difference in Efficacy (chelators) [1] | HLB Value [2] | % Difference in Efficacy (surfactants) [1] | also measured
O=C(O)CC(O)(CC(=O)O)C(=O)O [Citric Acid] | +50% |  |  | 
O=C([O-])C(=O)[O-].[K+].[K+] [Potassium Oxalate] | +1350% |  |  | 
O=P([O-])(O)O.[Na+] [Sodium Di-hydrogen Phosphate] | −70% |  |  | 
CCCCCCCCCCCCOS(=O)(=O)[O-].[Na+] [Sodium Dodecyl Sulphate, reference compound] |  | 33.0 | −99% | 
CCCCCCCC/C=C\CCCCCCCC(=O)[O-].[Na+] [Sodium Oleate] |  | 10.55 | +996% | efficacy relative to benzalkonium chloride, cocoamidopropyl betaine and Poloxamer 188 [1]: an order of magnitude greater; efficacy in disrupting the simulated test wound matrix relative to SLS [1]: an order of magnitude greater
O=C([O-])CC(O)(CC(=O)[O-])C(=O)[O-].[Na+].[Na+].[Na+] [Tris-odium Citrate] | +1750% |  |  | 
Benzalkonium Chloride [reference compound] |  |  | +60% | 
Cocoamidopropyl betaine |  |  | +120% | 
Di-sodium Lauryl Sulfosuccinate |  |  | +844% | efficacy relative to benzalkonium chloride, cocoamidopropyl betaine and Poloxamer 188 [1]: an order of magnitude greater; efficacy in disrupting the simulated test wound matrix relative to SLS [1]: an order of magnitude greater
Poloxamer 188 [reference compound] |  | 3.4 | −90% | 
Sodium Laureth-2 Sulphate |  | 15.3 | −30% | 
